{"source": "patent US10323007B1", "about": "“N2N N4-disubstituted quinazoline-2,4-diamines and uses thereof” (University of South Florida, priority 2016, dated 2019)"}
{"tested_on": "A. baumannii 1646", "assay": "MIC assay, strain 1646", "format": "cell-based, Acinetobacter baumannii", "conditions": "Acinetobacter baumannii; strain 1646; Tables 1, 3, 4, 5 and footnotes; read-out: 1646 MIC", "protocol": "(§1) MIC and MBC assays were performed in this study as documented by us previously.^17,23,24,25 The A. baumannii strains used are detailed in Table 7.", "units": {"MIC": "µM"}}
{"smiles": "Cc1cc(NS(=O)(=O)c2ccc(N)cc2)no1", "note": "[SMX, Sulfamethoxazole, reference compound]", "MIC": 118}
{"smiles": "COc1cc(Cc2cnc(N)nc2N)cc(OC)c1OC", "note": "[TMP, trimethoprim, reference compound]", "MIC": 34}
{"tested_on": "A. baumannii strain 1403", "assay": "not given", "format": "cell-based, Acinetobacter baumannii", "conditions": "serial passage, 8 days, start 0.5× MIC", "protocol": "An important attribute of novel antibiotics is the ability to fend off the development of resistance towards their effects. To assess this capacity, A. baumannii strains were incubated overnight with 0.5× MIC of each of the frontrunners. The next day cells were washed and used to inoculate fresh media that contained a two-fold increase in drug. This was repeated for a total of 8 days, alongside sulfamethoxazole (SMX) and trimethoprim (TMP) controls, both of which target the same pathway as our lead agents (FIG. 2).\nIn order to test potential resistance towards the quinazolines, a serial passage assay was performed alongside control compounds (Sulfamethoxazole and Trimethoprim), as described by us previously.^24 A. baumannii strain 1403 was grown overnight in LB media at 37° C. The next day cultures were diluted 1:100 in fresh media and seeded into a 96-well plate. Lead quinazolines or control agents were added to respective wells at half MIC concentrations. […] These were then grown overnight, and the procedure repeated for a total of eight days.", "units": {"increase in MIC over the 8-day test period": "fold"}}
{"smiles": "Cc1cc(NS(=O)(=O)c2ccc(N)cc2)no1", "note": "[SMX, Sulfamethoxazole, reference compound]", "increase in MIC over the 8-day test period": 128}
{"smiles": "COc1cc(Cc2cnc(N)nc2N)cc(OC)c1OC", "note": "[TMP, trimethoprim, reference compound]", "increase in MIC over the 8-day test period": 64}
{"tested_on": "A. baumannii 1650", "assay": "MIC assay, strain 1650", "format": "cell-based, Acinetobacter baumannii", "conditions": "Acinetobacter baumannii; strain 1650; Tables 1, 3, 4, 5 and footnotes; read-out: 1650 MIC", "protocol": "as §1", "units": {"MIC": "µM"}}
{"smiles": "Cc1cc(NS(=O)(=O)c2ccc(N)cc2)no1", "note": "[SMX, Sulfamethoxazole, reference compound]", "MIC": 118}
{"smiles": "COc1cc(Cc2cnc(N)nc2N)cc(OC)c1OC", "note": "[TMP, trimethoprim, reference compound]", "MIC": 120}
{"tested_on": "A. baumannii 1649", "assay": "MIC assay, strain 1649", "format": "cell-based, Acinetobacter baumannii", "conditions": "Acinetobacter baumannii; strain 1649; Tables 1, 3, 4, 5 and footnotes; read-out: 1649 MIC", "protocol": "as §1", "units": {"MIC": "µM"}}
{"smiles": "Cc1cc(NS(=O)(=O)c2ccc(N)cc2)no1", "note": "[SMX, Sulfamethoxazole, reference compound]", "MIC": 118}
{"smiles": "COc1cc(Cc2cnc(N)nc2N)cc(OC)c1OC", "note": "[TMP, trimethoprim, reference compound]", "MIC": 517}
{"tested_on": "A. baumannii 1651", "assay": "MIC assay, strain 1651", "format": "cell-based, Acinetobacter baumannii", "conditions": "Acinetobacter baumannii; strain 1651; Tables 1, 3, 4, 5 and footnotes; read-out: 1651 MIC", "protocol": "as §1", "units": {"MIC": "µM"}}
{"smiles": "Cc1cc(NS(=O)(=O)c2ccc(N)cc2)no1", "note": "[SMX, Sulfamethoxazole, reference compound]", "MIC": 118}
{"smiles": "COc1cc(Cc2cnc(N)nc2N)cc(OC)c1OC", "note": "[TMP, trimethoprim, reference compound]", "MIC": 103}
{"tested_on": "A. baumannii 1403", "assay": "MIC assay, strain 1403", "format": "cell-based, Acinetobacter baumannii", "conditions": "Acinetobacter baumannii; strain 1403; Tables 1, 3, 4, 5 and footnotes; read-out: 1403 MIC", "protocol": "as §1", "units": {"MIC": "µM"}}
{"smiles": "Cc1cc(NS(=O)(=O)c2ccc(N)cc2)no1", "note": "[SMX, Sulfamethoxazole, reference compound]", "MIC": 138}
{"smiles": "COc1cc(Cc2cnc(N)nc2N)cc(OC)c1OC", "note": "[TMP, trimethoprim, reference compound]", "MIC": 103}
{"tested_on": "human HepG2 cells", "assay": "not given", "format": "cell-based", "conditions": "human, 48 h, 25 μM", "protocol": "Cytotoxicity assays were performed using human HepG2 cells (human liver epithelial with hepatocellular carcinoma), as described by us previously.^17,24 Cells were cultured in Dulbecco's modified eagle medium (DMEM), supplemented with 10% fetal bovine serum and 1% penicillin-streptomycin for 3 days at 37° C. and 5% CO2. Cells were then diluted to 1×10^5 ml^−1 using fresh DMEM and added to 96 well tissue culture plates at a volume of 100 μL. Plates were incubated for 24 hours at 37° C. and 5% CO2, allowing the cells to adhere to the plastic. […] Plates were then incubated for 48 hours at 37° C. and 5% CO2. After 48 hours the DMEM was removed and 100 μL of new media was added containing MTT (3-(4, 5-dimethylthiazol-2-yl)-2, 5-diphenyltetrazolium bromide), followed by incubation for four hours at 37° C. and 5% CO2. […] Lead compounds were solvated in 100% DMSO for these studies, which served as the negative control. LD50 values were determined for each compound by comparison to vehicle only controls.", "units": {"HepG2 cell viability": "%"}}
{"smiles": "Cc1cc(NS(=O)(=O)c2ccc(N)cc2)no1", "note": "[SMX, Sulfamethoxazole, reference compound]", "HepG2 cell viability": 46}
{"smiles": "COc1cc(Cc2cnc(N)nc2N)cc(OC)c1OC", "note": "[TMP, trimethoprim, reference compound]", "HepG2 cell viability": 45}
{"tested_on": "A. baumannii 1652", "assay": "MIC assay, strain 1652", "format": "cell-based, Acinetobacter baumannii", "conditions": "Acinetobacter baumannii; strain 1652; Tables 1, 3, 4, 5 and footnotes; read-out: 1652 MIC", "protocol": "as §1", "units": {"MIC": "µM"}}
{"smiles": "Cc1cc(NS(=O)(=O)c2ccc(N)cc2)no1", "note": "[SMX, Sulfamethoxazole, reference compound]", "MIC": 118}
{"smiles": "COc1cc(Cc2cnc(N)nc2N)cc(OC)c1OC", "note": "[TMP, trimethoprim, reference compound]", "MIC": 103}
